Test results published in publication PMC11538690, “Lysosome‐Targeted Bifunctional Therapeutics Induce Autodynamic Cancer Therapy” (Advanced Science, 2024).

Tests used:
HT29 tumor-bearing mice [1] = assay: Time-dependent in vivo NIR tumor imaging and biodistribution; conditions: 20 nmol i.v., real-time NIR fluorescence imaging
Description: Figure 4 In vivo, tumor growth inhibition and studies in tumor‐induced mice subcutaneously injected with HT29 cells and treated with ZWPro. a) Schematic of the treatment schedule and experimental design of PBS, ZW, and ZWPro. Biodistribution and pharmacokinetic (PK) parameters of targeted ZW and ZWPro in normal mice. PK parameters of ZW and ZWPro (0.3 µmol kg^−1) (t1/2α; distribution half‐life, t1/2β; elimination half‐life, AUC; area under the curve, Vd volume of distribution, and urinary excretion (% injected dose, %ID)) were calculated using the software Prism 9. Urinary excretion occurred at 48 h post‐injection (n = 2–3 per group, mean ± s.e.m.). (b) In total, 20 nmol of each compound was injected into BLAB/C nude mice (weights = 20–25 g) and time‐dependent imaging was performed post‐injection. c) Color and NIR fluorescence in vivo images of ZW and ZWPro (0.3 µmol kg^−1) were taken at different time intervals. d) Tumor‐to‐background (TBR) ratios of tumors (white dotted circles in (c)) compared with muscles obtained from at each time point; and e) signal‐to‐background (SBR) outcomes were calculated using NIR images of resected organs at 48 h post‐injection. (Exposure time = 100 ms, n = 3, mean ± s.e.m.) The SBR was calculated by the fluorescence intensity of each organ (Or) against the system background (Exposure time = 1000 ms, n = 3, mean ± s.e.m.). […]

HT29 tumor-bearing mice [2] = assay: In vivo tumor reduction test; conditions: i.v. 50 nmol (9.5 mg kg−1) twice; weighed every other day for 30 days; versus control group
Procedure: Owing to the cancer‐specific cytotoxicity of ZWPro, the in vivo tumor targetability and theranostic capacity of ZWPro were evaluated in HT29 tumor‐bearing mice. Preliminary studies were conducted to determine the optimal dosage of ZWPro to achieve effective anticancer activity. […] To investigate the antitumor impact, mice were intravenously injected with PBS (150 µL) (control group), and with ZWPro (150 µL) or ZW (150 µL, 50 nmol at 9.5 mg k^−1g). […] The tumor size increased slightly after the treatment on d 0. […] Stable mouse body weights were observed across all experimental groups. After 30 d of treatment with ZWPro, tumors were smaller than those in the ZW and PBS groups (Figure 4g).
Figure 4 In vivo, tumor growth inhibition and studies in tumor‐induced mice subcutaneously injected with HT29 cells and treated with ZWPro. a) Schematic of the treatment schedule and experimental design of PBS, ZW, and ZWPro. […] PK parameters of ZW and ZWPro (0.3 µmol kg^−1) (t1/2α; distribution half‐life, t1/2β; elimination half‐life, AUC; area under the curve, Vd volume of distribution, and urinary excretion (% injected dose, %ID)) were calculated using the software Prism 9. […] (Exposure time = 100 ms, n = 3, mean ± s.e.m.) The SBR was calculated by the fluorescence intensity of each organ (Or) against the system background (Exposure time = 1000 ms, n = 3, mean ± s.e.m.). […]

NIH3T3 cells = assay: Cellular uptake by fluorescence microscopy; assay type: cell-based, mouse; conditions: 20 µM, 2 h, 37 °C; fluorescent microscopy
Procedure: (§1) Fluorescence microscopic assessments were performed to compare the intracellular uptake of ZW and ZWPro in cancerous and normal cells. Two sets of cathepsin B‐expressing cancer cells (HT29 and MCF7) and 2 sets of normal cells (L929 and NIH3T3) were seeded in a confocal dish and incubated at 37 °C for 1 d before treatment. Subsequently, 20 µM ZWPro and ZW were added to the cells for 2 h. Subsequently, 50 nM of LysoTracker Green (a fluorescent dye that selectively labels lysosomes) was added for 30 min. Following incubation with the dye, the cells were resuspended with fresh media after they were rinsed 3 times with 1X PBS to remove any remaining dye, and imaging was performed. To determine the role of organic anion transporter peptides (OATPs) in the ZWPro uptake process, HT29 cells were pretreated with BSP (250 µM, Sigma–Aldrich, 167 207) for 20 min in the inhibition assay. Cells were then incubated with 20 µM of ZWPro at 37 °C for 15 min. After washing, cell images were obtained. Images were obtained using a Nikon Eclipse inverted microscope, DS‐Ri2, or DS‐Qi2 (Ex/Em, 754/774 nm; exposure time, 2 s). The fluorescent intensity of each cell was measured using ImageJ (version 1.51j8, National Institutes of Health, Bethesda, MD, USA). The outline of each cell was determined on a phase‐contrast image.
(§2) Figure S5. Cellular uptake and intracellular localization of ZW and ZWPro. […]

HT29 cells [3] = assay: Cellular uptake by fluorescence microscopy; assay type: cell-based, human; conditions: 20 µM, 2 h, 37 °C; NIR fluorescence microscopy
Procedure: (§3) Figure 2 In vitro cellular evaluations of ZWPro in cancer cells. a) Cytotoxicity assay showing HT29, MCF7, L929, and NIH3T3 cells treated with 20 µM of ZW and ZWPro for 2 and 24 h, respectively, followed by an assessment of cell viability using the water‐soluble tetrazolium assay (n = 5, mean ± s.e.m.). b) Cellular uptake and intracellular endosomal localization of ZW and ZWPro were observed by treating HT29 and L929 cells with 20 µM of ZW and ZWPro. […] The internalization index was determined in 2–9 photographic areas (ns, not significant, *p < 0.05 based on two‐way analysis of variance followed by Bonferroni's multiple comparison test). c) Inhibition assay of cellular uptake of ZWPro to determine the entry mechanisms in HT29 cells. Cultured cells were incubated with bromsulphthalein for 20 min and then incubated with ZWPro (20 µM) in media for 15 min. […] The co‐localizing pixels (%) were calculated by dividing the area of overlap between ZWPro and LysoTracker by the total area of the LysoTracker, respectively. […]
(§4) Fluorescence microscopic assessments were performed to compare the intracellular uptake of ZW and ZWPro in cancerous and normal cells. […] The fluorescent intensity of each cell was measured using ImageJ (version 1.51j8, National Institutes of Health, Bethesda, MD, USA). The outline of each cell was determined on a phase‐contrast image.

L929 cells [4] = assay: Cellular uptake by fluorescence microscopy; assay type: cell-based, mouse; conditions: 20 µM, 2 h, 37 °C; NIR fluorescence microscopy
Procedure: as §3, §4

HT29 cells [5] = assay: WST-8 cytotoxicity assay; assay type: cell-based, human; conditions: 5, 10 and 20 µM, 24 h (Figure S4); n = 5
Procedure: as §3, with “cells.” for “cells. Cultured cells were incubated with bromsulphthalein for 20 min and then incubated with ZWPro (20 µM) in media for 15 min.”
(§5) To evaluate the cytotoxicity of ZW and ZWPro in cancer and normal cells, HT29, MCF7, L929, and NIH 3T3 cells were collected by trypsinization and resuspended in 96‐well plates at a concentration of 10 000 cells/well in fresh growth media and incubated for 1 d at 37 °C under 5% CO2 conditions. […] Absorption was subsequently measured at 450 nm on a microplate reader (Thermo Scientific, Varioskan LUX multimode). […]

[6] = Photostability test under 760 nm laser; assay type: physicochemical; conditions: all tested solvents, up to 4 h
Procedure: Photostability assay was conducted to compare ZW800‐1C with ZWPro in PBS and also evaluated ZWPro in distilled water and 10% FBS in PBS exposed to continuous irradiation using a 760 nm laser diode at 4 mW cm^−2, with white light (400–650 nm) at 40 000 lux and imaged up to 4 h. The fluorescence intensity (FI) signal (%) was calculated by measured values with ImageJ version 1.53t using images captured at each time point. Fluorescence values of the quenching assay were conducted at different concentration points at 0 and 4 h to determine the quenching concentration and to assess any significant photodegradation or photobleaching effects.
The data, presented as mean ± SD, assessed the fluorescence image by measuring regions of interest (ROI) and comparing fluorescence intensity against the initial fluorescence signal.
Figure S3. Optical property characterization of the ZWPro (a) Absorbance and Fluorescence spectra of ZWPro and optical properties of Pro, ZW800-1C, and ZWPro. (b) Stability test of ZWPro with PBS and 10% FBS in PBS until 24 h at 37 °C incubator. (c) Fluorescence image and value are used to determine quenching concentration under a 760nm channel of different concentrations of ZWPro depending on time. Photostability test of (d) ZW800-1C and ZWPro in PBS. (e) Photostability test of ZWPro in different solvents. DW: Distilled water, 10% FBS: Fetal bovine serum in PBS. […]

[7] = cited from earlier work
Description: The zwitterionic fluorophore ZW (emitting NIR fluorescence at 800 nm) was synthesized as reported previously.^[ [6] ^] […] To create the ZWPro conjugate, ZW (1.2 equiv.) was covalently attached to Pro using N‐Hydroxysuccinimide (NHS) ester and led to a stable amide bond formation (Figure 1b). Pro peptides were en ...

MCF7 cells [8] = assay: Cellular uptake by fluorescence microscopy; assay type: cell-based; conditions: 20 µM, 2 h, 37 °C; fluorescent microscopy
Procedure: as §1, §2

L929 cells [9] = assay: WST-8 cytotoxicity assay; assay type: cell-based, mouse; conditions: 5, 10 and 20 µM, 24 h (Figure S4); n = 5
Procedure: (§6) Figure 2 In vitro cellular evaluations of ZWPro in cancer cells. a) Cytotoxicity assay showing HT29, MCF7, L929, and NIH3T3 cells treated with 20 µM of ZW and ZWPro for 2 and 24 h, respectively, followed by an assessment of cell viability using the water‐soluble tetrazolium assay (n = 5, mean ± s.e.m.). b) Cellular uptake and intracellular endosomal localization of ZW and ZWPro were observed by treating HT29 and L929 cells with 20 µM of ZW and ZWPro. […] The internalization index was determined in 2–9 photographic areas (ns, not significant, *p < 0.05 based on two‐way analysis of variance followed by Bonferroni's multiple comparison test). c) Inhibition assay of cellular uptake of ZWPro to determine the entry mechanisms in HT29 cells. Cultured cells were incubated with bromsulphthalein for 20 min and then incubated with ZWPro (20 µM) in media for 15 min. Data are presented as means ± standard deviations (n = 7–8) **p < 0.01 based on Welch's t‐test. d) Findings from HT29 human colorectal adenocarcinoma cells and L929 fibroblast cell lines co‐stained with the lysosome marker LysoTracker Green. Co‐localization occurs at specific time intervals during imaging. The co‐localizing pixels (%) were calculated by dividing the area of overlap between ZWPro and LysoTracker by the total area of the LysoTracker, respectively. Scale bars: 10 µm.
(§7) To evaluate the cytotoxicity of ZW and ZWPro in cancer and normal cells, HT29, MCF7, L929, and NIH 3T3 cells were collected by trypsinization and resuspended in 96‐well plates at a concentration of 10 000 cells/well in fresh growth media and incubated for 1 d at 37 °C under 5% CO2 conditions. After the cells were completely attached to the walls, the original medium was discarded and replaced with a 200 µL fresh culture medium which contained different concentrations of ZW and ZWPro. Cells were then cultured in a constant temperature incubator for 2 and 24 h. EZ‐Cytox solution (10%) was then added to each well, and the plates were incubated at 37 °C in a 5% CO2 incubator for 2 h in the dark. Cells were then exposed to a digital orbital shaker (Scilab Instruments Co, No. SSO‐2D) at 200 rpm. Absorption was subsequently measured at 450 nm on a microplate reader (Thermo Scientific, Varioskan LUX multimode). […] Statistical analysis was conducted using the software GraphPad Prism 8.

NIH 3T3 cells = assay: WST-8 cytotoxicity assay; assay type: cell-based, mouse; conditions: 5, 10 and 20 µM, 24 h (Figure S4); n = 5
Procedure: as §6, §7

MCF7 cells [10] = assay: WST-8 cytotoxicity assay; assay type: cell-based; conditions: 5, 10 and 20 µM, 24 h (Figure S4); n = 5
Procedure: as §3, with “cells.” for “cells. Cultured cells were incubated with bromsulphthalein for 20 min and then incubated with ZWPro (20 µM) in media for 15 min.”
as §5

Compound | tumor targeting / accumulation (in words) (HT29 tumor-bearing mice [1]) | body weight change (in words) (HT29 tumor-bearing mice [2]) | cellular uptake / internalization (in words) (NIH3T3 cells) | cellular uptake / internalization (in words) (HT29 cells [3]) | cellular uptake / internalization (in words) (L929 cells [4]) | toxicity (in words) (HT29 cells [5]) | photostability (in words) [6] | plasma protein binding (in words) [7] | cellular uptake / internalization (in words) (MCF7 cells [8]) | toxicity (in words) (L929 cells [9]) | toxicity (in words) (NIH 3T3 cells) | toxicity (in words) (MCF7 cells [10])
CC1(C)C(/C=C/C2=C(c3ccc(CCC(=O)O)cc3)C(=C/C=C3/N(CCC[N+](C)(C)C)c4ccc(S(=O)(=O)O)cc4C3(C)C)/CCC2)=[N+](CCC[N+](C)(C)C)c2ccc(S(=O)(=O)O)cc21 [ZW, ZW800‐1C] | no tumor specificity or cell penetration ability | neither ZWPro nor ZW resulted in weight loss | does not show internalization | not internalized | not internalized | negligible toxicity | strong photostability | low‐plasma protein binding | does not show internalization | negligible toxicity | negligible toxicity | negligible toxicity
Protamine |  |  |  |  |  | negligible toxicity |  |  |  | negligible toxicity | negligible toxicity | negligible toxicity
